Laboratory results published in patent publication US5206260A, “Hexahydropyrrolo[2,3-b]indole derivatives” (priority 1991, dated 1993).

Key:
[1] = Somani et al., 1989; cited from earlier work
[2] = background statement, cited from earlier work
[3] = Metabolites of heptylphysostigmine (dog urine after oral dosing; canine liver microsomes); format: in vivo; conditions: mammalian metabolites
Procedure: The foregoing metabolites were originally isolated from dog urine following oral dosing with trimethyl-1,3a,8-hexahydro-1,2,3,3a,8,8a-pyrrol-[2,3-b]indole-5(3aS,8aR)heptylcarbamate at dosage levels of 1 mg/kg/day. Some of these compounds were also isolated from an incubation mixture of canine liver microsomes and trimethyl-1,3a,8-hexahydro-1,2,3,3a,8,8a-pyrrol[2,3-b]indole-5(3aS,8aR)-heptylcarbamate at a concentration of 10 μM in the presence of MgCl2 and NADPH in a buffer of approximately neutral pH at approximately 30°-40° C. The compounds were isolated from the biological matrix by selective solid phase or solvent extraction and purified by liquid chromatography (LC) using different mobile phase conditions. The procedures and the results of these experiments are noted in Examples 1-3.
Incubation of heptylphysostigmine with dog liver microsomes or 9,000×g supernatant fractions was performed to generate metabolites. The incubation mixture contained 100 μmoles of potassium phosphate, pH 7.4, 3 μmoles of MgCl2, 0.5 μmole of NADPH, 1 mg microsomal or 4 mg S9 protein and 10 nmols of ^3 H-heptylphysostigmine in a final volume of 1.0 ml. The incubations were carried out at 37° C. and 120 rpm for 10, 30 or 60 minutes. At the end of the incubation period, metabolites were extracted with a 2:1 mixture of ethyl acetate and acetone. […]

Row | SMILES | metabolites reported [1] | half-life of effect [2] | side-effects ([2]; particularly towards the digestive system) | metabolites discovered [3]
1 | CNC(=O)Oc1ccc2c(c1)[C@]1(C)CCN(C)[C@@H]1N2C [physostigmine, trimethyl-1,3a,8-hexahydro-1,2,3,3a,8,8a-pyrrol[2,3-b]indole-5(3aS,8aR)methylcarbamate] | metabolized to eseroline and at least three other unknown metabolites | short half-life of effect | severe dose-limiting side-effects | –
2 | CCCCCCCNC(=O)Oc1ccc2c(c1)[C@]1(C)CCN(C)[C@@H]1N2C [heptylphysostigmine, trimethyl-1,3a,8-hexahydro-1,2,3,3a,8,8a-pyrrol[2,3-b]indole-5(3aS,8aR) heptylcarbamate] | – | – | – | eseroline and eseroline glucuronide were also discovered among the mammalian metabolites
